Assay results as given in ChEMBL document CHEMBL4665655, “Highly tunable thiosulfonates as a novel class of cysteine protease inhibitors with anti-parasitic activity against Schistosoma mansoni” (Bioorg Med Chem, 2019).

Assays:
[1] = Aqueous stability of the compound in 0.1 M sodium phosphate buffer assessed as half life at pH 8 incubated under shaken condition by HPLC analysis; type: physicochemical
[2] = Inhibition of cysteine protease in Schistosoma mansoni assessed as reduction in schistosomula viability incubated for 7 days by inverted microscopy analysis
[3] = Aqueous stability of the compound in 0.1 M sodium phosphate buffer at pH 6 to 7 incubated under shaken condition by HPLC analysis; type: physicochemical
[4] = Inhibition of cysteine protease in Schistosoma mansoni assessed as reduction in schistosomula viability incubated for 3 days by inverted microscopy analysis
Papain = target: T1, Papain (Carica papaya, UniProt P00784); assay: Inhibition of papaya papain assessed as reduction in p-nitoaniline release using Nalpha-benzoyl-L-arginine 4-nitroanilide hydrochloride as substrate measured after 1 hr
T1 sequence (P00784 whole entry): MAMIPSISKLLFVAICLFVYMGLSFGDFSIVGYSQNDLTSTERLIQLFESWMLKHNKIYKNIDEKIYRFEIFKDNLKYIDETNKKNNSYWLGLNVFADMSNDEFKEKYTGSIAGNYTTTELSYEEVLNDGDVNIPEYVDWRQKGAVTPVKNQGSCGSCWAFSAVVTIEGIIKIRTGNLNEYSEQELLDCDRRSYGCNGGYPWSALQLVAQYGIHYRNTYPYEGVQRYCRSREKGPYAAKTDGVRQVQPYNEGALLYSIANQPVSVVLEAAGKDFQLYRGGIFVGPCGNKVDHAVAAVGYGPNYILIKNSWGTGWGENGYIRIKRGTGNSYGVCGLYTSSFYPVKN

[5] = Aqueous stability of the compound in 0.1 M sodium phosphate buffer assessed as half life at pH 7 incubated under shaken condition by HPLC analysis; type: physicochemical
[6] = Aqueous stability of the compound in 0.1 M sodium phosphate buffer assessed as half life at pH 6 incubated under shaken condition by HPLC analysis; type: physicochemical
[7] = Aqueous stability of the compound in 0.1 M sodium phosphate buffer assessed as time taken for drug degradation at pH 7 to 8 incubated under shaken condition by HPLC analysis; type: physicochemical

IC50 (Papain) [nM] | SMILES | IC50 [2] [µM] | IC50 [4] [µM] | further results
168 | CN1CCN(C(=O)N[C@@H](Cc2ccccc2)C(=O)N[C@@H](CCc2ccccc2)CSS(=O)(=O)C2CCCCC2)CC1.O=C(O)C(F)(F)F | 13.5 | 25.4 | half-life [1]: 360 min; Stabilty [3]: Stable
129 | CN1CCN(C(=O)N[C@@H](Cc2ccccc2)C(=O)N[C@@H](CCCNC(=N)N)CSS(=O)(=O)c2ccc([N+](=O)[O-])cc2)CC1 | – | – | –
124 | COc1ccc(S(=O)(=O)SC[C@H](CCCNC(=N)N)NC(=O)[C@H](Cc2ccccc2)NC(=O)N2CCN(C)CC2)cc1 | – | – | –
106 | CN1CCN(C(=O)N[C@@H](Cc2ccccc2)C(=O)N[C@@H](CCCNC(=N)N)CSS(=O)(=O)C2CCCCC2)CC1 | – | – | –
162 | Cc1ccc(S(=O)(=O)SC[C@H](CCCNC(=N)N)NC(=O)[C@H](Cc2ccccc2)NC(=O)N2CCN(C)CC2)cc1 | – | – | –
190 | CN1CCN(C(=O)N[C@@H](Cc2ccccc2)C(=O)N[C@@H](CCc2ccccc2)CSS(=O)(=O)c2ccccc2)CC1 | 21.4 | 64.4 | –
148 | COc1ccc(S(=O)(=O)SC[C@H](CCc2ccccc2)NC(=O)[C@H](Cc2ccccc2)NC(=O)N2CCN(C)CC2)cc1.O=C(O)C(F)(F)F | 13.6 | 44.9 | half-life [5]: 1440 min; half-life [6]: 60 min
182 | Cc1ccc(S(=O)(=O)SC[C@H](CCc2ccccc2)NC(=O)[C@H](Cc2ccccc2)NC(=O)N2CCN(C)CC2)cc1 | 26.9 | 41.1 | –
186 | CN1CCN(C(=O)N[C@@H](Cc2ccccc2)C(=O)N[C@@H](CCc2ccccc2)CSS(=O)(=O)c2ccc([N+](=O)[O-])cc2)CC1.O=C(O)C(F)(F)F | 14.7 | 29.3 | Time [7]: < 1 h; half-life [6]: 87 min
168 | CN1CCN(C(=O)N[C@@H](Cc2ccccc2)C(=O)N[C@@H](CCCNC(=N)N)CSS(=O)(=O)c2ccccc2)CC1 | – | – | –
– | O[C@@H](c1cc(C(F)(F)F)nc2c(C(F)(F)F)cccc12)[C@H]1CCCCN1 [(S,R)-MEFLOQUINE] | 0.4 | 2.4 | –

SMILES | IC50 (Papain) [nM] | IC50 [2] [µM] | IC50 [4] [µM] | further results
CN1CCN(C(=O)N[C@@H](Cc2ccccc2)C(=O)N[C@H](/C=C/S(=O)(=O)c2ccccc2)CCc2ccccc2)CC1 [K-777] | 81 | 7.3 | 59.9 | –
